Where “and” joins values, the source holds several entries; their conditions need not be identical. Identical values can stand only once.
How the values were obtained:
[1] = test system: Red blood cells (RBC); test: RBC survival (cell count) after freezing/thawing or lyophilizing/rehydrating at 2.5 ml; assay type: cell-based; settings: for RBC survival, 1A Thawed / RBC survival, 2A Thawed: not lyophilized; for RBC survival, 1A Thawed: percentage of total fresh cells counted; for RBC survival, 2A Thawed: frozen at 2,000° C./min
Method: Red blood cells (RBC) were separated from whole blood received from the Israeli Blood Bank. The blood was centrifuged for 10 minutes at 1500 g and the plasma was discarded. […] Afterwards the supernatant was discarded, and an equal volume of cryopreservation solution selected from the solutions in Table I was added to the packed RBC. Different volumes (2.5-50 ml) of the RBC suspension were transferred to a 16-25 mm diameter glass test tube ([…], Israel). The experiment of freezing 200 ml of RBC suspension was done in a 2000 ml freezing bag (Baxter-Fenwal, USA). Samples were then either frozen and thawed in a water bath at 37° C. or lyophilized and rehydrated with double distilled water (DDW) at 37° C. Glass test tubes containing RBC were frozen in a modified MTG freezing apparatus, as described in WO 03/020874 (manufactured by IMT, Israel). The thermal gradient in the cooling unit was set to 5.5° C./mm or 10.5° C./mm or 15.5° C./mm (as detailed below) with final temperatures of -50° C., -100° C. or -150° C. […] During freezing the test tubes that contained only 2.5 ml samples were rotated at a rate of 56 rpm. Subsequent to freezing, biological material was taken from each test tube to test for cell viability. Lyophilization was performed in a commercial lyophilizer (Labconco, USA) with a condenser temperature of -82° C. for 72 hours. The biological material was is rehydrated by adding DDW to reach the sample's original volume. Frozen (but not lyophilized) material was thawed by immersion in a water bath at 37° C. for until it melted. Melting was observed visually. Cells were counted using the […] 60 cell counter (ABX, France), in accordance with the manufacturer's manual. This device provides a complete cell count (CBC) that includes parameters such as: cell number, hematocrit, mean cell volume, hemoglobin, etc. […] In these experiments the cell suspension volume was 2.5 ml.

[2] = test system: RBC; settings: introduction of trehalose into fresh RBC, not frozen or freeze-dried; Satpathy et al. 2004; cited from earlier work
[3] = test system: Red blood cells (RBC); test: Post-thaw RBC hemolysis (cyanmethemoglobin assay, Drabkin's solution, Formula I); assay type: cell-based; settings: 4.12 mM EGCG in 20% (w/v) Dextran 40, 0.8% NaCl; 1890° C./min; 24 hours at −80° C.
Method: In the following Examples, unless specifically said otherwise, free hemoglobin levels detection was done by using the cyanmethemoglubin assay using Drabkin's solution (Sigma, USA) and reading the absorbance at 540 nm using an ELISA reader (Bio Tek Instruments, USA). Hemoglobin (Hb) concentration was measured in the supernatant and in the pellet, and the hemolysis percentage was calculated using Formula I: […]
Freezing solution was mixed in a 1:1 ration with packed red blood cells.
RBC were frozen at a volume of 2.5 ml in a 16 mm diameter test tube (Manara, Israel) using the MTG freezing device. […] The test tubes were rotated during freezing at 60 rounds per minute. After freezing, samples were stored for 24 hours in a −80° C. freezer (Forma, USA). Thawing was performed by plunging the samples in a water bath at 37° C. for a period of time under a minute, when the samples visually appears to have been completely thawed.
Samples were rotated at 60 RPM.

[4] = test system: Red blood cells (RBC); test: Freeze-dried and rehydrated RBC: cell number, MCV, hemolysis; assay type: cell-based; settings: for % Hemolysis in Lyo cells / MCV, Lyo / number of Cells, Lyo: lyophilized and rehydrated
Method: Freezing was performed as described in Example 5A. After freezing, samples were transferred to a commercial lyophilizer (Labconco, USA). Samples were lyophilized for 72 hours, after which rehydration was performed by adding 2.4 ml double distilled water at 37° C. back to the samples. After rehydration samples were counted and mean cell volume (MCV) was measured using the Pentra 60 (ABX, France) automatic cell counter. Free hemoglobin levels were measured as described above and the hemolysis percentage was calculated using Formula I.

[5] = test system: Red blood cells (RBC); test: Osmotic fragility of RBC; assay type: cell-based; settings: 0.9 mg/ml EGCG, 20% dextran 40 kD, 0.8% NaCl
Method: The control group was whole blood. Portions of each of the EGCG supplemented and control were exposed to different sodium chloride concentrations of: 0.1, 0.2, 0.3, 0.4, 0.5, 0.6, 0.7, 0.8 and 0.9% (w/v).
Free hemoglobin was measured as described above and the hemolysis percentage was calculated using Formula I. The results of this experiment are shown in FIG. 8.

[6] = test system: Red blood cells (RBC); test: Freezing RBC without thermal gradients at varying NaCl concentrations; assay type: cell-based; settings: for Cell Number, Thawed / MCV, Thawed: 24 h at −80° C.
Method: Samples volume was 1 ml. The Samples were maintained for at least 10 min at 5° C. and then transferred to a metal plate in a conventional freezing device (Forma, USA) at −80° C. for a period of 24 h. […] The percentage shown, is the thawed samples as compared with a fresh sample.

[7] = test system: Red blood cells (RBC); test: Hypothermic preservation of whole blood at 4° C.: cell count, MCV, ATP bioluminescence; assay type: cell-based; settings: on arrival, 15 minutes after adding, 1 week later, versus PBS bag
Method: Whole blood units, 2 days old, 500 ml each, were received from the Israeli blood services. 2 ml PBS were added to one bag and 2 ml PBS comprising 0.236 gram GTE (Taiyo, China) were added to the other. This GTE contains ˜80% catechins which contained the at least the following polyphenols: 48% EGCG, 10.8% epigallocatechin (EGC), 1.4% DL-Catechin (DL-C; (2S,3R)-2-(3,4-Dihydroxyphenol)-3,4-dihydro-1(2H)-benzopyran-3,5,7-triol), 5.6% epicatechin (EC). 2.6% gallocatechin gallate (GCG) and 14.5% epicatechin gallate (ECG). The final concentration of GTE was 0.4725 mg/ml. During delivery and storage the blood was maintained in a refrigerator at 4° C. storage.
1 ml samples were taken from each bag at the following times: (a) when the units arrived, (b) 15 minutes after adding PBS of EGCG and (c) 1 week later. The samples were counted and the mean cell value was measured using the Pentra 60 (ABX, France).
ATP content of each sample was assayed using ATP Bioluminescence Kit CLS II (Roche, Switzerland) according to the manufacturer's manual. In this assay, light emission is in direct proportion to the amount of ATP in the sample.

[8] = test system: Mononuclear cells (MNC) derived from umbilical cord blood (UCB); test: MNC viability by membrane integrity (SYBR14/PI) after freeze thawing or freeze drying; assay type: cell-based; settings: for Mambrane integrity (%): 0.1M Trehalose in PBS
Method: Blood was separated on ficoll-paque gradient for 30 minutes at 1000 g. Afterwards the mononuclear layer was drawn out and washed twice in PBS for 10 minutes at 200 g. To each pellet one of the following freezing solutions was added:
2.5 ml of cell suspension were put in a 16 mm diameter glass test tube (Manara, Israel) and frozen using the MTG freezing apparatus (IMT, Israel). The temperature gradients were 1.5° C./mm and 0.428° C./mm, velocity was 0.2 mm/sec resulting in a cooling rate of 18° C./min and 5.1° C./min respectively. The first cooling rate was applied until the seeding temperature was reached. The samples were rotated at 56 rounds per minute (RPM).
After freezing samples were plunged into liquid nitrogen (LN), and then samples were either thawed at 37° C. in a water bath or put in a commercial lyophilizer (Labconco, USA) with a condenser temperature of −80° C. After drying the cells were rehydrated with DDW at 37° C.
Cells were counted using the PENTRA 60 cell counter, as described above. viability assessments were performed by evaluating the cells' membrane integrity using SYBR14 plus Propidium Iodide (PI) (Molecular Probes, USA) live/dead fluorescent staining. These stains are nucleic acid stains, SYBR14 is a membrane permeable molecule and PI can enter the cell only if the membrane is damaged.
(§1) C. In this example a freezing solution composed of 0.1M Trehalose and either 0.47 mg/ml EGCG (×2.5) or 1.89 mg/ml EGCG (×10) in PBS was used. Samples volume was 2.5 ml and samples were frozen as described above and then lyophilized. After being in the lyophilizer for 72 h, the samples were taken out and rehydrated with 2.4 ml of DDW at 37° C. After rehydration samples were assayed for CD3 using FACS (fluorescent-activated cell sorter) in accordance with the method described in Huiling et al. The Journal of Immunology 2003, 171: 4824-4829, with minor modifications.
Membrane integrity of the samples was evaluated before and after rehydration using SYBR 14 and PI (Molecular Probes, USA).

[9] = test system: Mononuclear cells (MNC) derived from umbilical cord blood (UCB); test: CD3 expression by FACS of lyophilized, rehydrated MNC; assay type: cell-based; settings: 0.1M Trehalose in PBS
Method: as §1

[10] = test system: Mononuclear cells (MNC) derived from umbilical cord blood (UCB); test: MNC proliferation assay based on thymidine incorporation; assay type: cell-based; settings: FIG. 9; cells lyophilized at ×10 EGCG (4.12 mM) versus ×2.5 EGCG (1.03 mM); 48 hour incubation
Method: In addition, a cell proliferation assay was performed. In brief, the hydrated cells were incubated for 48 hour after which a proliferation assay based on thymidine incorporation was carried out (Promega, USA). The results of the proliferation assay are depicted in FIG. 9, wherein the proliferation index of the cells is depicted as a function of their number at initial plating. […] In addition, as the cells' initial plating number increases so does the proliferation index. The almost linear proportion shown for one of the ×10 EGCG samples is similar to that observed with fresh cells

OC[C@H]1O[C@H](O[C@H]2O[C@H](CO)[C@@H](O)[C@H](O)[C@H]2O)[C@H](O)[C@@H](O)[C@@H]1O [Trehalose, reference compound]
RBC survival, 1A Thawed ([1]; frozen at 1,000° C./min): 89.04%
RBC survival, 2A Thawed [1]: 93.24%
hemolysis [2]: causes significant hemolysis

O=C(O[C@@H]1Cc2c(O)cc(O)cc2O[C@@H]1c1cc(O)c(O)c(O)c1)c1cc(O)c(O)c(O)c1 [EGCG, Epigallocatechin gallate]
RBC survival, 1B Rehydrated ([1]; frozen at 1,000° C./min, lyophilized, rehydrated with DDW): 49.19%
RBC survival, 1A Thawed ([1]; frozen at 1,000° C./min): 84.53%
RBC survival, 2A Thawed [1]: 72.92%
Post thaw hemolysis [3]: 3.5%
MCV, % of lyo from fresh ([4]; 1.03 mM EGCG): 85.23%
number of Cells, % of lyo cells from fresh ([4]; 1.03 mM EGCG): 67.22%
number of Cells, Fresh ([4]; 1.03 mM EGCG in 20% Dextran 40, 0.8% NaCl): 4.21 10^9/ml
MCV, Fresh ([4]; 1.03 mM EGCG): 88 μm^3
% Hemolysis in Lyo cells ([4]; 1.03 mM EGCG): 56.18%
MCV, Lyo ([4]; 1.03 mM EGCG): 75 μm^3
number of Cells, Lyo ([4]; 1.03 mM EGCG): 2.83 10^9/ml
MCV, % of lyo from fresh ([4]; 4.12 mM EGCG): 96.59%
number of Cells, % of lyo cells from fresh ([4]; 4.12 mM EGCG): 63.32%
number of Cells, Fresh ([4]; 4.12 mM EGCG in 20% Dextran 40, 0.8% NaCl): 4.58 10^9/ml
MCV, Fresh ([4]; 4.12 mM EGCG): 88 μm^3
% Hemolysis in Lyo cells ([4]; 4.12 mM EGCG): 51.8%
MCV, Lyo ([4]; 4.12 mM EGCG): 85 μm^3
number of Cells, Lyo ([4]; 4.12 mM EGCG): 2.9 10^9/ml
hemolysis versus control (whole blood) ([5]; NaCl concentrations above 0.6% (w/v)): no significant difference
hemolysis versus control (whole blood) ([5]; hypotonic environment (below 0.5% NaCl)): lower hemolysis rates
Cell Number, % thawed compared with fresh ([6]; NaCl 0.6%): 100.00%
MCV, % thawed compared with fresh ([6]; NaCl 0.6%): 120.22%
Cell Number, Thawed ([6]; NaCl 0.6%): 4.12 10^9/ml
MCV, Thawed ([6]; NaCl 0.6%): 107 μm^3
Cell Number, Fresh ([6]; NaCl 0.6%): 4.12 10^9/ml
Cell Number, % thawed compared with fresh ([6]; NaCl 0.7%): 100.00%
MCV, % thawed compared with fresh ([6]; NaCl 0.7%): 124.44%
Cell Number, Thawed ([6]; NaCl 0.7%): 4.27 10^9/ml
MCV, Thawed ([6]; NaCl 0.7%): 112 μm^3
Cell Number, Fresh ([6]; NaCl 0.7%): 4.27 10^9/ml
Cell Number, % thawed compared with fresh ([6]; NaCl 0.8%): 100.00%
MCV, % thawed compared with fresh ([6]; NaCl 0.8%): 118.89%
Cell Number, Thawed ([6]; NaCl 0.8%): 4.71 10^9/ml
MCV, Thawed ([6]; NaCl 0.8%): 107 μm^3
Cell Number, Fresh ([6]; NaCl 0.8%): 4.71 10^9/ml
Cell Number, % thawed compared with fresh ([6]; NaCl 0.9% (Saline)): 75.50%
MCV, % thawed compared with fresh ([6]; NaCl 0.9% (Saline)): 101.11%
Cell Number, Thawed ([6]; NaCl 0.9% (Saline)): 3.42 10^9/ml
MCV, Thawed ([6]; NaCl 0.9% (Saline)): 91 μm^3
Cell Number, Fresh ([6]; NaCl 0.9% (Saline)): 4.53 10^9/ml
Cells counts [7]: essentially the same
MCV [7]: essentially the same
viability, effect of EGCG concentration ([8]; FIG. 7, 0.412, 1.03, 2.06, 4.12 mM EGCG with 0.1M trehalose in PBS, after freeze thawing and after freeze drying): viability increased with EGCG concentration
Mambrane integrity (%) ([8]; Fresh with 0.47 mg/ml EGCG): 97.36 ± 2.2%
Mambrane integrity (%) ([8]; Fresh with 1.89 mg/ml EGCG): 90.01 ± 4.3%
Mambrane integrity (%) ([8]; Lyophilized with 0.47 mg/ml EGCG, rehydrated): 55.1 ± 8.5% and 59.8 ± 1.4%
Mambrane integrity (%) ([8]; Lyophilized with 1.89 mg/ml EGCG, rehydrated): 79.31 ± 8.8% and 83.62 ± 5.7% and 88.4 ± 3.2% and 88.03 ± 5.6%
CD3 (%) ([9]; Lyophilized with 0.47 mg/ml EGCG): 80%
CD3 (%) ([9]; Lyophilized with 1.89 mg/ml EGCG): 81% and 83% and 82% and 78%
proliferation index [10]: higher proliferation index

— patent US8512941B2, “Biological material and methods and solutions for preservation thereof” (Core Dynamics Limited, priority 2004, dated 2013)
